According to ChEMBL document CHEMBL2157932, “Synthesis and pharmacological evaluation of carbamic acid 1-phenyl-3-(4-phenyl-piperazine-1-yl)-propyl ester derivatives as new analgesic agents” (Bioorg Med Chem Lett, 2012):

Columns and labels:
[1] = system: Mus musculus; assay: Analgesic activity in mouse assessed as inhibition of acetic acid-induced writhing response at 10 mg/kg, po administered 0.5 to 1 hr before acetic acid challenge; format: functional
[2] = target: T1, 5-hydroxytryptamine receptor 1A (Rattus norvegicus) (UniProt P19327); assay: Displacement of [3H]-8-OH-DPAT from 5HT1A receptor in rat hippocampus at 1 uM; format: tissue-based
T1 sequence (whole entry): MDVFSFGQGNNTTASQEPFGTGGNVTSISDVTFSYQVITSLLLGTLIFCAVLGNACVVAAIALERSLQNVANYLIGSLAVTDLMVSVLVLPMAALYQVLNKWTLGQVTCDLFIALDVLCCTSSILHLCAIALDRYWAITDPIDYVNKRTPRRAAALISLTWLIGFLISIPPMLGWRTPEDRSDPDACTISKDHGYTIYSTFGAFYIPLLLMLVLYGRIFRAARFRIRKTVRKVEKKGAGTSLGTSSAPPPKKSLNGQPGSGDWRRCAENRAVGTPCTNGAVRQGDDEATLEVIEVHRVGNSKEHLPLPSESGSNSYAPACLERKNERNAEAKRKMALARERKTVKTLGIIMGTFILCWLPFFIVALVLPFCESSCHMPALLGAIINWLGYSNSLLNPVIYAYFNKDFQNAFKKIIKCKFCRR

[3] = system: Mus musculus; assay: Neurotoxicity in mouse at 50 mg/kg, ip by rotarod test; format: toxicity, organism-based; set-up: dose 50 mg/kg, route intraperitoneal; conditions: in vivo
[4] = target: 5-hydroxytryptamine receptor 2A (Rattus norvegicus) (UniProt P14842); assay: Displacement of [3H]-ketanserin from 5HT2A receptor in rat cortical membrane at 1 uM; format: cell membranes
Chain of 5-hydroxytryptamine receptor 2A (Rattus norvegicus) (P14842 whole entry): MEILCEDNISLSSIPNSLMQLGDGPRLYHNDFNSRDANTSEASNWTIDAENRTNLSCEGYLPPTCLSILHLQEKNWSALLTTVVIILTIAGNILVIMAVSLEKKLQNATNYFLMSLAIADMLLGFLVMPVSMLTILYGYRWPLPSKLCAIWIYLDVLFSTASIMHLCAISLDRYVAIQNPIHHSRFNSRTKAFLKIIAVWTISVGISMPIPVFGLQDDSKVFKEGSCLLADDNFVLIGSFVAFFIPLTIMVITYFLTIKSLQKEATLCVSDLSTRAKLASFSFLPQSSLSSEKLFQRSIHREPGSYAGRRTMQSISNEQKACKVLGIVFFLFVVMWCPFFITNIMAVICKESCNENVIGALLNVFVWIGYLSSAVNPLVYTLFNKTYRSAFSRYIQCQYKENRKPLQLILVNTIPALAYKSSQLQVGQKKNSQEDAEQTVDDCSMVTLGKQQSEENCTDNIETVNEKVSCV

[5] = system: Mus musculus; assay: Analgesic activity in mouse assessed as inhibition of acetic acid-induced writhing response at 10 mg/kg, ip administered 0.5 to 1 hr before acetic acid challenge; format: functional; conditions: route intraperitoneal
[6] = target: T2, 5-hydroxytryptamine receptor 1A (Rattus norvegicus, UniProt P19327); assay: Displacement of [3H]-8-OH-DPAT from 5HT1A receptor in rat hippocampus; format: tissue-based
T2 sequence (P19327 whole entry): T1 sequence (whole entry)

[7] = target: 5-hydroxytryptamine receptor 2A (Rattus norvegicus, UniProt P14842); assay: Displacement of [3H]-ketanserin from 5HT2A receptor in rat cortical membrane; format: cell membranes
Chain of 5-hydroxytryptamine receptor 2A (P14842 whole entry): as above

[8] = Half life in human liver microsomes by LC/MS/MS; format: ADME, Microsome
[9] = Neurotoxicity in po dosed mouse by rotarod test; format: toxicity, organism-based; conditions: in vivo
[10] = system: Mus musculus; assay: Antinociceptive activity in late phase po dosed mouse by formalin test; format: functional
[11] = system: Mus musculus; assay: Analgesic activity in po dosed mouse assessed as inhibition of acetic acid-induced writhing response administered 0.5 to 1 hr before acetic acid challenge; format: functional
[12] = system: Mus musculus; assay: Antinociceptive activity in po dosed mouse by hot plate test; format: functional
[13] = system: Rattus norvegicus; assay: Antiinflammatory activity in po dosed rat persistent inflammatory pain model assessed as inhibition of carrageenan-induced mechanical hyperalgesia; format: functional
[14] = system: Mus musculus; assay: Analgesic activity in ip dosed mouse assessed as inhibition of acetic acid-induced writhing response administered 0.5 to 1 hr before acetic acid challenge; format: functional
[15] = Half life in rat liver microsomes by LC/MS/MS; format: ADME, Microsome
[16] = Neurotoxicity in ip dosed mouse by rotarod test; format: toxicity, organism-based; conditions: in vivo

## NC(=O)OC(CCN1CCN(c2ccc(OC(F)(F)F)cc2)CC1)c1ccccc1 (single isomer, unassigned)
[1]
  inhibition in vivo at 10 mg/kg: 18%

## COc1ccc(C(CCN2CCN(c3ccccc3)CC2)OC(N)=O)cc1 (single isomer, unassigned)
[2]
  inhibition: 67.7%
[1]
  inhibition in vivo at 10 mg/kg: 43%
[3]
  Activity: Toxic
[4]
  inhibition: 82%
[5]
  inhibition in vivo at 10 mg/kg: 100%

## NC(=O)OC(CCN1CCN(c2ccc(C(F)(F)F)cc2)CC1)c1ccccc1 (single isomer, unassigned)
[6]
  IC50: 7220 nM
[7]
  IC50: 2110 nM

## NC(=O)OC(CCN1CCN(c2ccc(Cl)c(C(F)(F)F)c2)CC1)c1ccccc1 (single isomer, unassigned)
[1]
  inhibition in vivo at 10 mg/kg: 52%

## COc1ccc(N2CCN(CCC(OC(N)=O)c3ccc(C)c(C)c3)CC2)cc1 (single isomer, unassigned)
[1]
  inhibition in vivo at 10 mg/kg: 58%

## NC(=O)OC(CCN1CCN(c2ccc(Cl)cc2)CC1)c1ccccc1 (single isomer, unassigned)
[5]
  inhibition in vivo at 10 mg/kg: 52%

## NC(=O)OC(CCN1CCN(c2ccccc2)CC1)c1ccc(F)cc1 (stereo unspecified)
[2]
  inhibition: 65.5%
[3]
  Activity: Non-toxic
[8]
  half-life: 18 min
[9]
  TD50: 141 mg/kg
[4]
  inhibition: 84.7%
[5]
  inhibition in vivo at 10 mg/kg: 99%

## O[C@@H](CCN1CCN(c2ccccc2)CC1)c1ccccc1
[6]
  IC50: 495 nM
[7]
  IC50: 289 nM
[5]
  inhibition in vivo at 10 mg/kg: 66.7%

## COc1ccc(N2CCN(CCC(OC(N)=O)c3ccc(Cl)c(Cl)c3)CC2)cc1 (single isomer, unassigned)
[1]
  inhibition in vivo at 10 mg/kg: 61%

## CN1CC[C@]23c4c5ccc(O)c4O[C@H]2[C@@H](O)C=C[C@H]3[C@H]1C5 [MORPHINE]
[10]
  ED50: 9.15 mg/kg
[11]
  ED50: 5.57 mg/kg
[12]
  ED50: 13.5 mg/kg
[13]
  ED50: 0.6 mg/kg
[14]
  ED50: 0.96 mg/kg

## NC(=O)O[C@H](CCN1CCN(c2ccccc2)CC1)c1ccccc1
[6]
  IC50: 534 nM
[15]
  half-life: 8 min
[8]
  half-life: 62 min
[7]
  IC50: 62 nM
[14]
  ED50: 0.18 mg/kg

## NC(=O)OC(CCN1CCN(c2ccccc2F)CC1)c1ccccc1 (single isomer, unassigned)
[16]
  TD50: 44.7 mg/kg

## NC(=O)OC(CCN1CCN(c2ccccc2)CC1)c1cccc(Cl)c1 (single isomer, unassigned)
[2]
  inhibition: 76.4%
[1]
  inhibition in vivo at 10 mg/kg: 59%
[4]
  inhibition: 93.7%
[5]
  inhibition in vivo at 10 mg/kg: 100%

## COc1ccc(N2CCN(CCC(OC(N)=O)c3ccc(C)cc3C)CC2)cc1 (single isomer, unassigned)
[1]
  inhibition in vivo at 10 mg/kg: 62%

## NC(=O)O[C@@H](CCN1CCN(c2ccccc2)CC1)c1ccccc1
[6]
  IC50: 772 nM
[7]
  IC50: 1020 nM
[5]
  inhibition in vivo at 10 mg/kg: 87.8%

## COc1cccc(N2CCN(CCC(OC(N)=O)c3ccccc3)CC2)c1 (single isomer, unassigned)
[5]
  inhibition in vivo at 10 mg/kg: 55%

## O[C@H](CCN1CCN(c2ccccc2)CC1)c1ccccc1
[6]
  IC50: 174 nM
[7]
  IC50: 452 nM
[5]
  inhibition in vivo at 10 mg/kg: 70.1%

## Cc1cccc(C)c1N1CCN(CCC(OC(N)=O)c2ccccc2)CC1 (single isomer, unassigned)
[1]
  inhibition in vivo at 10 mg/kg: 48%

## Cc1ccc(N2CCN(CCC(OC(N)=O)c3ccccc3)CC2)c(C)c1 (single isomer, unassigned)
[1]
  inhibition in vivo at 10 mg/kg: 34%

## Cc1ccccc1N1CCN(CCC(OC(N)=O)c2ccccc2)CC1 (single isomer, unassigned)
[6]
  IC50: 149 nM
[7]
  IC50: 78.3 nM

## O=C(CCN1CCN(c2ccccc2)CC1)c1ccccc1
[6]
  IC50: 47.5 nM
[7]
  IC50: 1070 nM
[5]
  inhibition in vivo at 10 mg/kg: 37.2%

## COc1ccc(C(CCN2CCN(c3ccc(OC)cc3)CC2)OC(N)=O)cc1 (stereo unspecified)
[1]
  inhibition in vivo at 10 mg/kg: 53%

## NC(=O)OC(CCN1CCN(c2ccc(F)cc2)CC1)c1ccc(F)cc1 (single isomer, unassigned)
[2]
  inhibition: 60.9%
[1]
  inhibition in vivo at 10 mg/kg: 52%
[4]
  inhibition: 93.9%

## NC(=O)OC(CCN1CCN(c2ccc(C(F)(F)F)cc2[N+](=O)[O-])CC1)c1ccccc1 (single isomer, unassigned)
[1]
  inhibition in vivo at 10 mg/kg: 50%
